Laboratory results from BindingDB's records for doi:10.1016/j.bmcl.2005.02.011 (Florida Institute of Technology, 2005).

Experiment: Effective concentration for DP2 mediated chemotaxis in eosinophils

| Structure (SMILES) | EC50 |
| --- | --- |
| CCCCC[C@](C)(O)/C=C/[C@H]1C(=O)C[C@H](O)[C@@H]1C/C=C/CCCC(=O)O | 128 nM |
| CCCCC[C@H](O)/C=C/[C@H]1C(=O)C[C@H](O)[C@@H]1C/C=C/CCCC(=O)O [(Z)-7-[(1R,2R,5S)-5-Hydroxy-2-((E)-(S)-3-hydroxy-oct-1-enyl)-3-oxo-cyclopentyl]-hept-5-enoic acid] | 10 nM |
| CCCCC[C@@](C)(O)/C=C/[C@H]1C(=O)C[C@H](O)[C@@H]1C/C=C/CCCC(=O)O [(Z)-7-[(1R,4S,5R)-5-Hydroxy-2-((R)-3-hydroxy-3-methyl-oct-1-enyl)-3-oxo-cyclopentyl]-hept-5-enoic acid] | 1.7 nM |
